According to US12559471B2, “1,5-dihydro-2,4-benzodiazepine-3-one derivative and application thereof” (JIANGSU NHWA PHARMACEUTICAL CO., LTD, priority 2020, dated 2026):
Several values for one entry are separate records, joined by “and”; a condition that tells them apart may be missing. Identical values can stand only once.

Assays:
[1] = tested on: MPTP+MK-801-induced Parkinson's disease mouse model; experiment: MPTP+MK-801-induced Parkinson's disease mouse model (anti-PDP efficacy model); format: in vivo; settings: ip, mice, intraperitoneal, read-out: PDP efficacy (high activity) ED50
Experimental: 1.1 Effect on MPTP+MK-801-induced Parkinson's disease mouse model (anti-PDP efficacy model)
Animals were injected with different doses of MPTP(1-methyl-4-phenyl-1,2,3,6-tetrahydropyridine) intraperitoneally every morning for 5 consecutive days. […] Then, after an interval of 0.25 h, the mice were placed into an autonomous activity test box (a black polyethylene box with the specification of 29 cm×29 cm×30 cm) for video recording for 20 min. Video analysis was performed after the video recording to evaluate the activity of the mice.

[2] = tested on: MPTP+APO-induced climbing behavior in male mice; experiment: MPTP+APO-induced climbing behavior in male mice (DA motor deterioration model); format: in vivo; settings: observation in words
Experimental: 1.2 Effect on MPTP+APO-induced climbing behavior in male mice (DA motor deterioration model) Animals were injected with different doses of MPTP intraperitoneally every morning for 5 consecutive days. […] After the subcutaneous injection, animals were immediately placed into a climbing cage (self-made, a cylindrical cage with the diameter of 13 cm and the height of 15 cm, made of a stainless steel wire mesh with the diameter of about 0.1 cm, the bottom of which is a semitransparent polyethylene plate, and the cage cover of which is a stainless steel cage cover), and the behaviors of animals at minutes 10-11, 20-21 and 30-31 after the APO injection was observed and scored.
Scoring criteria: four feet on the floor scored 0; two forepaws on the cage scored 1; and four feet on the cage scored 2.

[3] = Investigation of sedation side effects (autonomic activity, movement distance); format: in vivo, mice; settings: mouse, in vivo, ip; C57BL/6j mice, intraperitoneal, 45 min after administration
Experimental: (§1) 1.3 Investigation of Sedation Side Effects (Anti-Sedation Model)
(§2) According to different doses of each group, solutions at different concentrations were separately formulated for intraperitoneal injection, with the final administration volume of 10 mL/kg.
(§3) The movement at 0-20 min was recorded on video, and the movement distance in 20 min was analyzed by Top Scan 3.00 software. The inhibition rate of each group relative to the blank group after the administration were calculated, and the sedation effects of the compounds were comprehensively evaluated in combination with a statistical conclusion.

C57BL/6j mice = experiment: as above; format: in vivo; settings: sedation ED50 / PDP efficacy ED50
Experimental: as §1, §2, §3

[4] = tested on: DOI-induced head shaking behavior of mice; experiment: DOI-induced head shaking (head thrust) test in mice; format: in vivo; settings: Mus musculus, intragastric, DOI 1 mg/kg i.p., 0-20 min, read-out: ED50 for inhibiting the DOI-induced head shaking behavior
[5] = tested on: DOI-induced PPI impairment in rats; experiment: DOI-induced PPI impairment test in rats (intervention test); format: in vivo; settings: DOI 0.5 mg/kg
Experimental: 3. DOI ((f)-1-(2,5-dimethoxy-4-iodophenyl)-2-aminopropane hydrochloride or (f)-2,5-dimethoxy-4-iodoamphetamine hydrochloride) induced PPI impairment effect test in rats
30 min after the intragastric administration of a drug (or a vehicle) and 30 min after the subcutaneous injection of DOI at 0.5 mg/kg at the neck, namely 60 min after the intragastric administration, the rats were placed into a startle reflex test box for testing.
(§4) The test was performed according to literature and preliminary experiments, and the specific process was as follows: first an adaptation period of 5 min was given (62 dB background sound), and 5 separate startle reflex stimuli were given after the adaptation period (blockl, results not included in the analysis to reduce the initial response of the animals to a plateau level), followed by 4 different types of tests (block2) presented in a pseudo-random manner, namely: 1) startle reflex stimulus alone (pulse-alone, 120 dB, lasting 20 ms); 2) prepulse stimulus alone 13 dB above the background sound (prepulse-alone, 75 dB, lasting 20 ms); 3) prepulse stimulus in combination with startle reflex stimulus, each lasting 20 ms, with an interval of 100 ms; and 4) no stimulus in which only the background sound was given (no stimulus). Each trial was performed 5 times, with an average interval of 20 s (10-30 s) between trials.
The response amplitude of the startle reflex stimulus alone or the prepulse stimulus in combination with startle reflex stimulus was expressed as the AVG (instrument-specific unit) value, which indirectly reflects the size of the flinching response of the rat body. Evaluation index: PPI %=(1−response amplitude of prepulse stimulus in combination with startle reflex stimulus/response amplitude of startle reflex stimulus alone)×100. The higher the value is, the greater the degree of the inhibition is.

PPI in normal rats = PPI in normal rats (dosing test, normal saline instead of DOI); format: in vivo; settings: for PPI %, MEAN / PPI %, individual animal: normal saline
Experimental: as §4
The response amplitude of the startle reflex stimulus alone or the prepulse stimulus in combination with startle reflex stimulus was expressed as the AVG (instrument-specific unit) value, which indirectly reflects the size of the flinching response of the rat body. Evaluation index: PPI %=(1−response amplitude of prepulse stimulus in combination with startle reflex stimulus/response amplitude of startle reflex stimulus alone)×100. The higher the value is, the greater the degree of the inhibition is. Dosing Test:
The DOI at 0.5 mg/kg administered to animals in the above groups was changed to normal saline (NS), and other operations including administration and testing were the same as those in the intervention test.

5-HT2C receptor = 5-HT2C receptor (Rattus norvegicus (Rat), UniProt P08909); settings: read-out: 5-HT2C (Ki value); rat cortex membrane, 3H-Mesulergine
Chain of 5-HT2C receptor (P08909 33-460): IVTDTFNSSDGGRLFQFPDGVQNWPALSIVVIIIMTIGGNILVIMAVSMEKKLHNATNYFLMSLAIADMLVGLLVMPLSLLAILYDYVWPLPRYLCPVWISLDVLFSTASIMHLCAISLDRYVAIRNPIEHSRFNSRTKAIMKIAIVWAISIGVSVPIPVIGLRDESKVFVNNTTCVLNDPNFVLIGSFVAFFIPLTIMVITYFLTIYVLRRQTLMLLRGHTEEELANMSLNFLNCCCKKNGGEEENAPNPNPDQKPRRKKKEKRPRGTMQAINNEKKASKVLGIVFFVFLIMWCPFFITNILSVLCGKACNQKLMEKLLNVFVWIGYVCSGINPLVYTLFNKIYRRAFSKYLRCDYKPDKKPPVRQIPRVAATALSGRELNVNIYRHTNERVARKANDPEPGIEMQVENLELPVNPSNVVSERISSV
Experimental: 2) Preparation of 5-HT2C Membrane
The rat cortex was taken out of a refrigerator at −80° C. and thawed spontaneously. The solution A was added, and the mixture was homogenized for 3-4 s at 4th gear for a total of 4 times and centrifuged at 50000 g for 25 min at 4° C. The supernatant was discarded, and the solution A was added into the precipitate. The mixture was mixed well using a vortex mixer and centrifuged at 50000 g for 25 min at 4° C. (repeated twice). The supernatant was discarded after the centrifugation, and the precipitate was stored at −80° C. for later use.
2) Competitive 5-HT2C Receptor Binding Assay
Step 1: the prepared membrane was suspended in the homogenate B to obtain a 210 mg/mL membrane suspension for later use.
Step 2: 100 μL of the membrane suspension was added into each reaction tube.
Step 3: 100 μL of the solution B was added into a total binding tube (TB), 100 μL of Ketanserin (final concentration: 1.0×10^−5 M) was added into a non-specific binding tube (NB), and 100 μL of test compound was added into each compound binding tube (CB).
Step 4: 10 μL of radioligand ^3H-Mesulergine was added into each reaction tube to reach a final concentration of 3 nM.
Step 5: each reaction tube was incubated at 37° C. for 25 min. After the reaction was completed, the binding ligands were rapidly filtered under reduced pressure, wherein the Whatman test paper GF/C was washed with 0.5% PEI solution 1 h in advance. The filter membrane was fully washed with cold Tris buffer solution, taken out and put into a 4 mL scintillation disc, which was then added with 1 mL toluene scintillation solution and shaken for mixing well.
Step 6: the scintillation disc was put into a liquid scintillation counter for counting.

**Q.** What does the source list for `CC(C)COc1ccc(CN2Cc3ccc(F)cc3CN(C3CCN(C)CC3)C2=O)cc1` [NH-K-A19005, 8-fluoro-2-(1-methylpiperidin-4-yl)-4-[[4-(2-methylpropoxy)phenyl]methyl]-1,5-dihydro-2,4-benzo diazepine-3-one]?
**A.** ED50 [1]: 1.85 mg/kg; motor deterioration (DA mechanism of action) [2]: no motor deterioration is observed; ED50 at 45 min [3]: 20 mg/kg; Ratio of sedation ED50 to PDP efficacy ED50 (C57BL/6j mice): 10.8; ED50 [4]: 0.15 mg/kg; reversal of DOI-induced PPI impairment ([5]; 3 mg/kg, P<0.05): significantly reverse; PPI %, MEAN ([5]; 1 mg/kg intragastric): 40.15%; PPI %, individual animal ([5]; 1 mg/kg intragastric): 55.27% and 13.13% and 49.29% and 40.22% and 11.24% and 71.74%; PPI %, MEAN ([5]; 3 mg/kg intragastric): 42.95%; PPI %, individual animal ([5]; 3 mg/kg intragastric): 36.23% and 53.57% and 36.93% and 47.37% and 45.54% and 61.94% and 38.90% and 23.16%; PPI %, MEAN ([5]; 10 mg/kg intragastric): 52.40%; PPI %, individual animal ([5]; 10 mg/kg intragastric): 86.67% and 28.57% and 78.84% and 65.78% and 63.08% and 0.38% and 52.03% and 43.86%; effect on PPI in normal rats (PPI in normal rats; 3 mg/kg): no significant effects were seen; PPI %, MEAN (PPI in normal rats; 1 mg/kg intragastric): 56.40%; PPI %, individual animal (PPI in normal rats; 1 mg/kg intragastric): 80.68% and 15.47% and 49.79% and 52.82% and 71.15% and 68.46%; PPI %, MEAN (PPI in normal rats; 3 mg/kg intragastric): 57.04%; PPI %, individual animal (PPI in normal rats; 3 mg/kg intragastric): 59.36% and 82.61% and 79.48% and 48.75% and 42.42% and 38.56% and 48.95% and 56.22%; PPI %, MEAN (PPI in normal rats; 10 mg/kg intragastric): 73.61%; PPI %, individual animal (PPI in normal rats; 10 mg/kg intragastric): 55.11% and 96.41% and 53.03% and 84.89% and 84.43% and 72.39% and 61.37% and 81.26%; Ki (5-HT2C receptor): 3.39 nM
